Where “and” joins values, the source holds several entries; their conditions need not be identical. Equal entries are not always repeated.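 Method: 48-hour compound exposure of cells in 96-well plates, five concentrations, linear interpolation of endpoints. GI50: concentration for 50% inhibition of growth.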 Calls of active or inactive are those of the source. No stated cut-off is given here; in the data, active = GI50 up to about 1.1 µM and inactive = higher. Residues, ends and D or L forms follow the SMILES beside them. *: point of attachment. Boc = CC(C)(C)OC(=O)*; OBn = c1ccc(CO*)cc1
Columns and labels:
Assay in all cases: NCI tumour cell line growth inhibition, 48 h
[1] = system: A549
[2] = system: CAKI-1
[3] = system: EKVX
[4] = system: HL-60
[5] = system: Hs-578T
[6] = system: K562
[7] = system: LOX IMVI
[8] = system: MDA-N
[9] = system: NCI-H23
[10] = system: NCI-H522
[11] = system: NCI/ADR-RES
[12] = system: OVCAR-4
[13] = system: PC-3
[14] = system: RXF 393
[15] = system: SF-295
[16] = system: SF-539
[17] = system: SK-MEL-28
[18] = system: SR
[19] = system: UACC-257
[20] = system: HOP-18

Compound | GI50 [1] | GI50 [2] | GI50 [3] | GI50 [4] | GI50 [5] | GI50 [6] | GI50 [7] | GI50 [8] | GI50 [9] | GI50 [10] | GI50 [11] | GI50 [12] | GI50 [13] | GI50 [14] | GI50 [15] | GI50 [16] | GI50 [17] | GI50 [18] | GI50 [19] | GI50 [20]
O=C(O)C1(C(=O)O)CCN(S(=O)(=O)c2ccccc2)CC1 | > 100 µM (inactive) | > 100 µM (inactive) | > 100 µM (inactive) | > 100 µM (inactive) | > 100 µM (inactive) | > 100 µM (inactive) | > 100 µM (inactive) | > 100 µM (inactive) | > 100 µM (inactive) | > 100 µM (inactive) | > 100 µM (inactive) | > 100 µM (inactive) | > 100 µM (inactive) | > 100 µM (inactive) | > 100 µM (inactive) | > 100 µM (inactive) | > 100 µM (inactive) | > 100 µM (inactive) | > 100 µM (inactive) | 
O=C(c1ccc([N+](=O)[O-])cc1)N1CCCC1 | > 100 µM (inactive) | > 100 µM (inactive) | > 100 µM (inactive) | > 100 µM (inactive) | > 100 µM (inactive) | > 100 µM (inactive) | > 100 µM (inactive) | > 100 µM (inactive) | > 100 µM (inactive) | > 100 µM (inactive) | > 100 µM (inactive) | > 100 µM (inactive) | > 100 µM (inactive) | > 100 µM (inactive) | > 100 µM (inactive) | > 100 µM (inactive) | > 100 µM (inactive) | > 100 µM (inactive) | > 100 µM (inactive) | 
Cc1nc2ccc(Cl)cc2c2c1CCO2 | 63 µM (inactive) | 43.4 µM (inactive) | 17.1 µM (inactive) | 41.5 µM (inactive) | > 100 µM (inactive) | > 100 µM (inactive) | 67.5 µM (inactive) | 36.3 µM (inactive) | > 100 µM (inactive) | > 100 µM (inactive) | > 100 µM (inactive) | > 100 µM (inactive) | 88.1 µM (inactive) | 24.4 µM (inactive) | 75.7 µM (inactive) | 46.5 µM (inactive) | > 100 µM (inactive) | > 100 µM (inactive) | > 100 µM (inactive) | 
CCCCCCCC1c2cc3nc(cc4[nH]c(cc5nc(cc([nH]2)[C@@]1(C)CC(=O)N(C)C)C(C)=C5CCC(=O)O)c(CCC(=O)O)c4C)C=C3C (some centres not stated) | 50.2 µM (inactive) | 39 µM (inactive) | 55.8 µM (inactive) | 23.7 µM (inactive) | 18.7 µM (inactive) | 21.8 µM (inactive) | 17.6 µM (inactive) | 31 µM (inactive) | 18.5 µM (inactive) | 18.4 µM (inactive) | 20.4 µM (inactive) | 32.8 µM (inactive) | 23.8 µM (inactive) | 17.8 µM (inactive) | 18.9 µM (inactive) | 18.9 µM (inactive) | 19.1 µM (inactive) | 19.9 µM (inactive) | 17.3 µM (inactive) | 
N/N=C1\C(=O)N(c2ccc(Cl)cc2Cl)C(=O)C(=O)C1c1nc2ccccc2o1 (configuration not stated) | > 100 µM (inactive) | > 100 µM (inactive) | > 100 µM (inactive) | > 100 µM (inactive) |  | > 100 µM (inactive) | 97.7 µM (inactive) |  | > 100 µM (inactive) | > 100 µM (inactive) |  | > 100 µM (inactive) |  |  | > 100 µM (inactive) | > 100 µM (inactive) | > 100 µM (inactive) |  | > 100 µM (inactive) | > 100 µM (inactive)
CC(C)NC(=O)OCc1c(COC(=O)NC(C)C)c(-c2ccc[n+](COC(=O)C(C)C)c2)n2c1CCC2 | > 91.4 µM (inactive) | 17.3 µM (inactive) | > 100 µM (inactive) | 16 µM (inactive) | > 100 µM (inactive) | 56.6 µM (inactive) | 37.7 µM (inactive) | > 100 µM (inactive) | 33.5 µM (inactive) | 34.5 µM (inactive) | 63.7 µM (inactive) | > 87.3 µM (inactive) | 59.3 µM (inactive) | 42.4 µM (inactive) | 68.9 µM (inactive) | 31.8 µM (inactive) | > 100 µM (inactive) | 8.53 µM (inactive) | > 100 µM (inactive) | 
O=Cc1ccc2c(c1)CC1(C2)Cc2ccc3c(c2C1)CCC3 (configuration not stated) | 37.8 µM (inactive) | 21.1 µM (inactive) | 24.3 µM (inactive) | 3.75 µM (inactive) | 7.41 µM (inactive) | 6.34 µM (inactive) | 4.73 µM (inactive) | 2.19 µM (inactive) | 14.6 µM (inactive) | 34.8 µM (inactive) | 7.19 µM (inactive) | 10.8 µM (inactive) | 5.51 µM (inactive) | 11.2 µM (inactive) | 5.85 µM (inactive) | 9.02 µM (inactive) | 12.7 µM (inactive) | 4.42 µM (inactive) | 16 µM (inactive) | 
CCOC(=O)/C=C(\C(=O)OCC)n1cc(C)c(=O)n(Cc2cn(CCCCOC(C)=O)nn2)c1=O | 19.4 µM (inactive) | 3.92 µM (inactive) | 9.04 µM (inactive) | 2.27 µM (inactive) | 16.3 µM (inactive) | 2.53 µM (inactive) | 6.62 µM (inactive) | 20.7 µM (inactive) | 14.2 µM (inactive) | 1.41 µM (inactive) | 19.6 µM (inactive) | 23.2 µM (inactive) | 14.3 µM (inactive) | 1.48 µM (inactive) | 18.4 µM (inactive) | 1.95 µM (inactive) | 11.5 µM (inactive) | 3.05 µM (inactive) | 16.1 µM (inactive) | 
COC(C)(C)[C@H](O)C(O)CC(C)[C@@H]1CCC23CC12CCC1[C@@]2(C)CCC(OC(C)=O)C(C)(C)C2CC(OC2OC(COC(C)=O)C(O)C(O)C2O)[C@]13C (some centres not stated) | 2.94 µM (inactive) | 2.92 µM (inactive) | 7.46 µM (inactive) | 1.35 µM (inactive) |  | 2.34 µM (inactive) | 2.79 µM (inactive) |  | 7.18 µM (inactive) | 1.83 µM (inactive) |  | 4.55 µM (inactive) |  | 4.05 µM (inactive) | 3.21 µM (inactive) | 2.72 µM (inactive) | 4.26 µM (inactive) |  | 3.76 µM (inactive) | 11 µM (inactive)
CC(=O)Nc1cc2cc(NS(=O)(=O)c3cc(C(F)(F)F)cc(C(F)(F)F)c3)ccc2oc1=O | > 100 µM (inactive) | > 100 µM (inactive) | > 100 µM (inactive) | > 100 µM (inactive) | > 100 µM (inactive) | > 100 µM (inactive) | 98.6 µM (inactive) | > 100 µM (inactive) | > 100 µM (inactive) | > 100 µM (inactive) | > 100 µM (inactive) | > 100 µM (inactive) | > 100 µM (inactive) | 0.016 µM (active) | > 100 µM (inactive) | 29.4 µM (inactive) | > 100 µM (inactive) | > 100 µM (inactive) | > 100 µM (inactive) | 
CN(C)CCn1c(=O)c2ccc(NCCNCCO)c3c(=O)c4cc(O)ccc4n(c1=O)c23 | 0.607 µM (active) | 0.938 µM (active) | 2.58 µM (inactive) | 1.47 µM (inactive) | 0.667 µM (active) | 0.991 µM (active) | 0.91 µM (active) | 2.2 µM (inactive) | 1.01 µM (active) | 0.281 µM (active) | 17.1 µM (inactive) | 0.895 µM (active) | 1.69 µM (inactive) | 0.586 µM (active) | 1.6 µM (inactive) | 0.367 µM (active) | 4.43 µM (inactive) | < 0.0352 µM (active) | 4.43 µM (inactive) | 
CC(C)C(NC(=O)CNC(=O)C1CCCN1C(=O)C(NC(=O)OC(C)(C)C)C(C)C)C(=O)NCC(=O)OCc1ccccc1 (configuration not stated) (Boc-VPGVG-OBn; configuration not given here) | > 100 µM (inactive) | > 100 µM (inactive) | > 100 µM (inactive) | > 100 µM (inactive) and 72.8 µM (inactive) | 80.7 µM (inactive) | 61.4 µM (inactive) | > 100 µM (inactive) | > 100 µM (inactive) | > 100 µM (inactive) | > 100 µM (inactive) | > 100 µM (inactive) | > 100 µM (inactive) | > 100 µM (inactive) | > 100 µM (inactive) | > 100 µM (inactive) | > 100 µM (inactive) | > 100 µM (inactive) | > 100 µM (inactive) | > 100 µM (inactive) | 
COc1cccc2c1cc([N+](=O)[O-])c1c(C(=O)O)cc3c(c12)OCO3 [ARISTOLOCHIC ACID] | 45.9 µM (inactive) | 27.2 µM (inactive) | 43.4 µM (inactive) | 23.1 µM (inactive) | 52.8 µM (inactive) | 33.9 µM (inactive) | 35.5 µM (inactive) | > 100 µM (inactive) | 39.4 µM (inactive) | 28.1 µM (inactive) | 38.1 µM (inactive) | 32 µM (inactive) | 46.5 µM (inactive) | 23.4 µM (inactive) | 32.4 µM (inactive) | 24.9 µM (inactive) | 41.9 µM (inactive) | 21.7 µM (inactive) | 97.7 µM (inactive) | 
COC(=O)C1=C(C)NC(C)=C(C(=O)OCCCN2CCC(c3ccccc3)(c3ccccc3)CC2)[C@H]1c1cccc([N+](=O)[O-])c1 [NIGULDIPINE] | 1.79 µM (inactive) | 3.98 µM (inactive) | 2 µM (inactive) | 1.16 µM (inactive) | 1.69 µM (inactive) | 0.946 µM (active) | 1.62 µM (inactive) | 1.97 µM (inactive) | 1.75 µM (inactive) | 2.49 µM (inactive) | 1.73 µM (inactive) | 1.55 µM (inactive) | 1.52 µM (inactive) | 1.86 µM (inactive) | 1.73 µM (inactive) | 1.8 µM (inactive) | 1.88 µM (inactive) | 2.26 µM (inactive) | 1.66 µM (inactive) | 
